Tests used:
Nonstructural protein 5 [1] = molecular target: T1, Nonstructural protein 5 (Dengue virus, UniProt V5TFZ2); assay: Inhibition of DENV3 NS5 RdRp using ss-RNA PolyC as template and GTP as substrate assessed as decrease in dsRNA levels after 1 hr by PicoGreen-based fluorescence assay; set-up: species or system dengue virus type 3
[2] = Cytotoxicity against African green monkey Vero E6 cells by Cell Titer-blue method; format: cell-based, Vero C1008; details: chlorocebus sabaeus
Nonstructural protein 5 [3] = molecular target: T1, Nonstructural protein 5; assay: Mixed type inhibition of DENV3 NS5 RdRp using increasing concentration of ss-RNA PolyC as template assessed as enzyme-substrate complex after 1 hr in presence of GTP substrate by Lineweaver-Burk double reciprocal plot analysis; set-up: species or system dengue virus type 3
Nonstructural protein 5 [4] = molecular target: T1, Nonstructural protein 5; assay: Mixed type inhibition of DENV3 NS5 RdRp using increasing concentration of ss-RNA PolyC as template assessed as free enzyme after 1 hr in presence of GTP substrate by Lineweaver-Burk double reciprocal plot analysis; set-up: species or system dengue virus type 3
Nonstructural protein 5 [5] = molecular target: T1, Nonstructural protein 5; assay: Binding affinity to DENV3 NT-647-NHS labeled NS5 RdRp after 1 hr by microscale thermophoresis method; set-up: species or system dengue virus type 3
[6] = Induction of colloidal aggregate formation in aqueous medium at 50 uM measured for 5 mins by light scattering-based photon correlation spectroscopy; format: physicochemical; details: buffer
Nonstructural protein 5 [7] = molecular target: T1, Nonstructural protein 5; assay: Mixed type inhibition of DENV3 NS5 RdRp using increasing concentration of GTP as substrate assessed as free enzyme after 1 hr in presence of ss-RNA PolyC template by Lineweaver-Burk double reciprocal plot analysis; set-up: species or system dengue virus type 3
Nonstructural protein 5 [8] = molecular target: T1, Nonstructural protein 5; assay: Mixed type inhibition of DENV3 NS5 RdRp using increasing concentration of GTP as substrate assessed as enzyme-substrate complex after 1 hr in presence of ss-RNA PolyC template by Lineweaver-Burk double reciprocal plot analysis; set-up: species or system dengue virus type 3
Nonstructural protein 5 [9] = molecular target: T1, Nonstructural protein 5; assay: Inhibition of DENV3 full length NS5 RdRp assessed as decrease in dsRNA levels preincubated for 20 mins followed by ss-RNA and ATTO-CTP, ATP, GTP and UTP addition measured after 120 mins by FAPA assay; set-up: species or system dengue virus type 3

T1 sequence (V5TFZ2 whole entry): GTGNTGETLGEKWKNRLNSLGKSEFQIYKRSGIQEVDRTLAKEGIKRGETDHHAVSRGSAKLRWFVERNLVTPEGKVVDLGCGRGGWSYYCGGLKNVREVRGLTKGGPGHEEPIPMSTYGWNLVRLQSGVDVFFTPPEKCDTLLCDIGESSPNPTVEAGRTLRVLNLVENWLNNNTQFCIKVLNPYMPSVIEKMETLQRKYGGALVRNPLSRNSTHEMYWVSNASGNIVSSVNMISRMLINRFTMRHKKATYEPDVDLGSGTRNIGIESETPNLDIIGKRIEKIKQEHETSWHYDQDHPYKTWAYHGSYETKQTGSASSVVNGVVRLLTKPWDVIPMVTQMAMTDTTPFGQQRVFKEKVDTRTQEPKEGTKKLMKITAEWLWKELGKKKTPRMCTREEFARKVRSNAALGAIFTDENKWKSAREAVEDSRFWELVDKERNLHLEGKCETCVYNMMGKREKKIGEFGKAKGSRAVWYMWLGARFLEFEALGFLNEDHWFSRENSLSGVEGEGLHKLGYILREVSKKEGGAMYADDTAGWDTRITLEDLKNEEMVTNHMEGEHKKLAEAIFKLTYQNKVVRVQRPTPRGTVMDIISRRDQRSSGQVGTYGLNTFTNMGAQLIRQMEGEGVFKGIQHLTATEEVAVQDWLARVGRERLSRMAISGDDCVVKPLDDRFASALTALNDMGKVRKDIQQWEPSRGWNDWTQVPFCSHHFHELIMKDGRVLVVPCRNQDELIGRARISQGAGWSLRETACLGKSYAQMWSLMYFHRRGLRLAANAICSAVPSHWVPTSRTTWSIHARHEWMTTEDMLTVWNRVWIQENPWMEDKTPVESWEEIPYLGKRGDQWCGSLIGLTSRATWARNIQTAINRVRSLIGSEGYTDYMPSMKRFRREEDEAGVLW

IC50 (Nonstructural protein 5 [1]) | Compound | also measured
17.3 µM | CN1c2c(C(=O)Nc3ccc(NS(C)(=O)=O)cc3)nn(-c3cccc(F)c3)c2-c2ccccc2S1(=O)=O | 
41.5 µM | CCOC1=CS(=O)(=O)Nc2ccc(Oc3ccccc3Br)cc21 | 
4.7 µM | O=C(OC1=CS(=O)(=O)Nc2ccc(Oc3ccc(Br)cc3)cc21)c1ccccc1 | 
0.6 µM | O=C(OC1=CS(=O)(=O)Nc2ccc(Oc3ccccc3Br)cc21)c1ccc(F)c(F)c1 | CC50 [2]: 80 µM; Ki (Nonstructural protein 5 [3]): 4.33 µM; Ki (Nonstructural protein 5 [4]): 1.54 µM; Kd (Nonstructural protein 5 [5]): 1.1 µM; Activity [6]: Not Active; Ki (Nonstructural protein 5 [7]): 0.252 µM; Ki (Nonstructural protein 5 [8]): 1.58 µM
> 50 µM | O=C1CCN(C(=O)c2ccccc2)c2ccc(Oc3ccccc3Br)cc21 | 
30.8 µM | O=C(OC1=CS(=O)(=O)Nc2ccc(Oc3ccccc3Br)cc21)c1ccccc1 | 
11.4 µM | O=C1CS(=O)(=O)N(C(=O)c2ccccc2)c2ccc(Oc3ccccc3Br)cc21 | 
8.4 µM | O=C(OC1=CS(=O)(=O)Nc2ccc(Oc3cccc(Br)c3)cc21)c1cccc([N+](=O)[O-])c1 | 

The next lines start with the compound.

Compound | IC50 (Nonstructural protein 5 [1]) | also measured
O=C(OC1=CS(=O)(=O)Nc2ccc(Oc3cccc(F)c3)cc21)c1ccccc1 | 7 µM | 
O=C(O)c1cc(Oc2cccc(Br)c2)ccc1NS(=O)(=O)c1ccc([N+](=O)[O-])cc1 | 1.7 µM | 
CC(C)(C)c1cccc(Oc2ccc3c(c2)C(OC(=O)c2ccccc2)=CS(=O)(=O)N3)c1 | 15.8 µM | 
COC1=CS(=O)(=O)Nc2ccc(Oc3ccccc3Br)cc21 | > 50 µM | 
O=C(O)c1cc(Oc2cccc(Br)c2)ccc1NS(=O)(=O)c1ccccc1 | 4.5 µM | 
O=C(OC1=CS(=O)(=O)Nc2ccc(Oc3cccc(Br)c3)cc21)c1ccc(F)c(F)c1 | 0.9 µM | 
O=C(OC1=CS(=O)(=O)Nc2ccc(Oc3cccc(Br)c3)cc21)c1ccccc1 | 7 µM | 
Cc1ccc(-n2nc(C(=O)Nc3ccc(NS(C)(=O)=O)cc3)c3c2-c2ccccc2S(=O)(=O)N3C)cc1 | 14.1 µM | 
CN1c2ccc(Oc3cccc(Br)c3)cc2C(OC(=O)c2ccccc2)=CS1(=O)=O | 2.6 µM | 
COc1ccc(C(=O)OC2=CS(=O)(=O)Nc3ccc(Oc4ccccc4Br)cc32)cc1[N+](=O)[O-] | 6.3 µM | 
CN1c2c(C(=O)Nc3ccc(NS(C)(=O)=O)cc3)nn(-c3ccc(Cl)cc3)c2-c2ccccc2S1(=O)=O | 13.6 µM | 
COC1=CS(=O)(=O)N(C(=O)c2ccccc2)c2ccc(Oc3ccccc3Br)cc21 | 46.2 µM | 
COc1cccc(Oc2ccc3c(c2)C(OC(=O)c2ccccc2)=CS(=O)(=O)N3)c1 | 20.3 µM | 
CCc1cccc(Oc2ccc3c(c2)C(OC(=O)c2ccccc2)=CS(=O)(=O)N3)c1 | 6.9 µM | 
COc1cc(C)c(C(=O)NS(=O)(=O)c2cccc3cccnc23)cc1-c1ccc(C#CCO)s1 |  | IC50 (Nonstructural protein 5 [9]): 0.016 µM
COc1ccc(C(=O)OC2=CS(=O)(=O)Nc3ccc(Oc4cccc(Br)c4)cc32)cc1[N+](=O)[O-] | 4.7 µM | 

Source: ChEMBL document CHEMBL4251565, “Functionalized 2,1-benzothiazine 2,2-dioxides as new inhibitors of Dengue NS5 RNA-dependent RNA polymerase” (Eur J Med Chem, 2018)
